Values quoted from earlier work as cited in patent EP1027077B1, “MAGNETIC RESONANCE IMAGING AGENTS FOR THE DELIVERY OF THERAPEUTIC AGENTS” (Research Corporation Technologies, Inc, priority 1997, dated 1999).

Conditions: thermodynamic stability of the Gd(III) chelate; background statement

SMILES | stability constant (K) / formation constant, logK
O=C([O-])CN(CCN(CC(=O)[O-])CC(=O)[O-])CCN(CC(=O)[O-])CC(=O)[O-].[Gd+3] [Gd(DTPA)^2-] | 22.4
O=C([O-])CN1CCN(CC(=O)[O-])CCN(CC(=O)[O-])CCN(CC(=O)[O-])CC1.[Gd+3] [Gd-DOTA] | 28.5
